Like-named read-outs stand apart in the source and are kept apart here.
Tests used:
Type in all cases: cell-based
alpha2A receptor = biological target: T1, alpha2A receptor (Homo sapiens, UniProt P08913); assay: RSAT assay, alpha 2A; conditions: for (rel. efficacy) Alpha 2A: ratio of maximal effect to standard full agonist brimonidine (UK14304)
T1 sequence (P08913 1-465): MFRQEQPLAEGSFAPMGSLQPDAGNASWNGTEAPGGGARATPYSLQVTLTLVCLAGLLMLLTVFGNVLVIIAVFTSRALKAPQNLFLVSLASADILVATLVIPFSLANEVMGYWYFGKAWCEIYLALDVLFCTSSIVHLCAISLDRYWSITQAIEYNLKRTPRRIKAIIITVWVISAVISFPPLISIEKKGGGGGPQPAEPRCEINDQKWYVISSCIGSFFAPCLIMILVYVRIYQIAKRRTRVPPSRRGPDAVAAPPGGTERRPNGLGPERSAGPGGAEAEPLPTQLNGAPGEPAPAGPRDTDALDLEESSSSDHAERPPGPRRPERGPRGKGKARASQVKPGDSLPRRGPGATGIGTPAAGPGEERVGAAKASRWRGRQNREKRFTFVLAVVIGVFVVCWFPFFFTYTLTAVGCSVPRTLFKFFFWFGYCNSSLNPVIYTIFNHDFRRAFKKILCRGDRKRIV
Description: (§1) Selected presently described compounds were synthesized and tested for alpha adrenergic activity using the Receptor Selection and Amplification Technology (RSAT) assay. Cells expressing each of the alpha-2-adrenergic receptors alone were incubated with various compounds and a receptor-mediated growth response was measured. The compound's activity is expressed as its relative efficacy compared to a standard full agonist.
(§2) The RSAT assay measures a receptor-mediated loss of contact inhibition that results in selective proliferation of receptor-containing cells in a mixed population of confluent cells. The increase in cell number is assessed with an appropriate transfected marker gene such as β-galactosidase, the activity of which can be easily measured in a 96-well format. Receptors that activate the G protein, Gq, elicit this response. Alpha2 receptors, which normally couple to Gi, activate the RSAT response when coexpressed with a hybrid Gq protein that has a Gi receptor recognition domain, called Gq/i5.
(§3) NIH-3T3 cells are plated at a density of 2×10^6 cells in 15 cm dishes and maintained in Dulbecco's modified Eagle's medium supplemented with 10% calf serum. One day later, cells are cotransfected by calcium phosphate precipitation with mammalian expression plasmids encoding p-SV-β-galactosidase (5-10 μg), receptor (1-2 μg) and G protein (1-2 μg). 40 μg salmon sperm DNA may also be included in the transfection mixture. Fresh media is added on the following day and 1-2 days later, cells are harvested and frozen in 50 assay aliquots. Cells are thawed and […] added to […] aliquots of various concentrations of drugs in triplicate in 96-well dishes. Incubations continue 72-96 hr at 37° C. After washing with phosphatebuffered saline, β-galactosidase enzyme activity is determined by adding 200 μl of the chromogenic substrate (consisting of 3.5 mM o-nitrophenyl-β-D-galactopyranoside and 0.5% nonidet P-40 in phosphate buffered saline), incubating overnight at 30° C. and measuring optical density at 420 nm. The absorbance is a measure of enzyme activity, which depends on cell number and reflects a receptor-mediated cell proliferation. The EC50 and maximal effect of each drug at each alpha2 receptor is determined. The efficacy or intrinsic activity is calculated as a ratio of the maximal effect of the drug to the maximal effect of a standard full agonist for each receptor subtype. Brimonidine, also called UK14304, is used as the standard agonist for the alpha2A, alpha2B, and alpha2C receptors.
(§4) The compounds activity is expressed as its relative efficacy compared to a standard full agonist.

alpha2B receptor = biological target: T2, alpha2B receptor (Homo sapiens, UniProt P18089); assay: RSAT assay, alpha 2B; conditions: for (rel. efficacy) Alpha 2B: ratio of maximal effect to standard full agonist brimonidine (UK14304)
T2 construct: expressed in transfected cells; host or cells: NIH-3T3
T2 sequence (P18089 1-450): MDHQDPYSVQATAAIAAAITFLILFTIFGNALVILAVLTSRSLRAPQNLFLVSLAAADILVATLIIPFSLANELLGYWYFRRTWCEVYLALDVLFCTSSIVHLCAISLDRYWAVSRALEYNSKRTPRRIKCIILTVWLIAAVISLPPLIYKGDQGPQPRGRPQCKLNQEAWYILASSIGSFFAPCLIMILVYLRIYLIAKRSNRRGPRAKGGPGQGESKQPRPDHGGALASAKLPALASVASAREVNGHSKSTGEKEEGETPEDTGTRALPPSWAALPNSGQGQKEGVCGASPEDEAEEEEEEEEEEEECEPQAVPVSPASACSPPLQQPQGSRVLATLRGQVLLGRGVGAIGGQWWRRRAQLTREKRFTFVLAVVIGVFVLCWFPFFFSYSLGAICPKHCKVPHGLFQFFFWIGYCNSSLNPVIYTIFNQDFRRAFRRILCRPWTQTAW
Description: as §1, §2, §3, §4

alpha2C receptor = biological target: T3, alpha2C receptor (Homo sapiens, UniProt P18825); assay: RSAT assay, alpha 2C; conditions: for (rel. efficacy) Alpha 2C: ratio of maximal effect to standard full agonist brimonidine (UK14304)
T3 construct: expressed in transfected cells; host or cells: NIH-3T3
T3 sequence (P18825 1-462): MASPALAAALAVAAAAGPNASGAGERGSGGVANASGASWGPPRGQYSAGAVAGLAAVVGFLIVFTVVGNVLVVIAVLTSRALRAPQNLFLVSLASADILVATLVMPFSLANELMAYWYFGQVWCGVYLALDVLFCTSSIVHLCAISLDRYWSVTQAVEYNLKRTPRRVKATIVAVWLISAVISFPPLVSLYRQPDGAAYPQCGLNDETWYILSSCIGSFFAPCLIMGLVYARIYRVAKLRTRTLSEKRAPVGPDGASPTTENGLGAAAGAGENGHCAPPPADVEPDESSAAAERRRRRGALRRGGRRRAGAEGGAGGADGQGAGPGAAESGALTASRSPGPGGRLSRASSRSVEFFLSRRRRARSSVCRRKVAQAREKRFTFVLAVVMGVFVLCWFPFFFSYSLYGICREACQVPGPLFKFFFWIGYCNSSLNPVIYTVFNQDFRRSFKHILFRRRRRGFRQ
Description: as §1, §2, §3, §4

[1] = RSAT, NIH-3T3 cells, NA = not active, read-out: EC50 (nM) Alpha 2A
[2] = RSAT, NIH-3T3 cells, NA = not active, read-out: EC50 (nM) Alpha 2C
[3] = RSAT, NIH-3T3 cells, NA = not active, read-out: EC50 (nM) Alpha 2B

`COc1ccc(Cl)cc1CNC1=NCCS1` was tested, and the EC50 (alpha2A receptor; [1]) was 2250 nM, the “(rel. efficacy) Alpha 2A” value (alpha2A receptor; RSAT) was 0.38 and the EC50 (alpha2B receptor) was 77 nM. The “(rel. efficacy) Alpha 2B” value (alpha2B receptor; RSAT) was 0.85, the EC50 (alpha2C receptor; [2]) was 465 nM and the “(rel. efficacy) Alpha 2C” value (alpha2C receptor; RSAT) was 0.55.
`Fc1ccc(Br)c(CNC2=NCCO2)c1` was tested, and the EC50 (alpha2B receptor) was 4 nM, the “(rel. efficacy) Alpha 2B” value (alpha2B receptor; RSAT) was 1.05 and the EC50 (alpha2C receptor) was 29 nM. The “(rel. efficacy) Alpha 2C” value (alpha2C receptor; RSAT) was 0.71.
For `FC(F)Oc1cccc(CNC2=NCCO2)c1`, the EC50 (alpha2B receptor; [3]) was 217 nM, the “(rel. efficacy) Alpha 2B” value (alpha2B receptor; RSAT) was 0.6 and the EC50 (alpha2C receptor) was 60 nM. The “(rel. efficacy) Alpha 2C” value (alpha2C receptor; RSAT) was 0.49.
For `Fc1ccc(Br)cc1CNC1=NCCO1`, the EC50 (alpha2B receptor) was 18 nM, the “(rel. efficacy) Alpha 2B” value (alpha2B receptor; RSAT) was 0.89 and the EC50 (alpha2C receptor; [2]) was 186 nM. The “(rel. efficacy) Alpha 2C” value (alpha2C receptor; RSAT) was 0.63.
For `Clc1ccccc1CNC1=NCCO1`, the EC50 (alpha2B receptor) was 3.3 nM, the “(rel. efficacy) Alpha 2B” value (alpha2B receptor; RSAT) was 1.02 and the EC50 (alpha2C receptor) was 42 nM. For the same compound, the “(rel. efficacy) Alpha 2C” value (alpha2C receptor; RSAT) was 0.83.
For `Clc1c(Br)cccc1CNC1=NCCS1`, the EC50 (alpha2A receptor) was over 3000 nM, the “(rel. efficacy) Alpha 2A” value (alpha2A receptor; RSAT) was 0.4 and the EC50 (alpha2B receptor) was 18 nM. For the same compound, the “(rel. efficacy) Alpha 2B” value (alpha2B receptor; RSAT) was 1.01, the EC50 (alpha2C receptor; [2]) was 198 nM and the “(rel. efficacy) Alpha 2C” value (alpha2C receptor; RSAT) was 0.98.
For `Clc1cccc(CNC2=NCCS2)c1`, the EC50 (alpha2B receptor) was 42 nM, the “(rel. efficacy) Alpha 2B” value (alpha2B receptor; RSAT) was 0.99 and the EC50 (alpha2C receptor; [2]) was 504 nM. The “(rel. efficacy) Alpha 2C” value (alpha2C receptor; RSAT) was 0.48.
For `Fc1ccc(Br)c(CNC2=NCCS2)c1`, the EC50 (alpha2B receptor) was 73 nM, the “(rel. efficacy) Alpha 2B” value (alpha2B receptor; RSAT) was 0.97 and the EC50 (alpha2C receptor) was 452 nM. The “(rel. efficacy) Alpha 2C” value (alpha2C receptor; RSAT) was 0.67.
With `Brc1ccccc1CNC1=NCCO1` the EC50 (alpha2B receptor) was 5 nM, the “(rel. efficacy) Alpha 2B” value (alpha2B receptor; RSAT) was 1.09 and the EC50 (alpha2C receptor) was 85 nM. The “(rel. efficacy) Alpha 2C” value (alpha2C receptor; RSAT) was 0.85.
`Fc1ccc(Br)cc1CNC1=NCCS1` was tested, and the EC50 (alpha2B receptor; [3]) was 280 nM, the “(rel. efficacy) Alpha 2B” value (alpha2B receptor; RSAT) was 0.85 and the EC50 (alpha2C receptor; [2]) was 2060 nM. For the same compound, the “(rel. efficacy) Alpha 2C” value (alpha2C receptor; RSAT) was 0.64.
For `FC(F)(F)c1cccc(CNC2=NCCS2)c1Cl`, the EC50 (alpha2B receptor; [3]) was 101 nM, the “(rel. efficacy) Alpha 2B” value (alpha2B receptor; RSAT) was 1.08 and the EC50 (alpha2C receptor; [2]) was 854 nM. The “(rel. efficacy) Alpha 2C” value (alpha2C receptor; RSAT) was 0.46.
For `Fc1cccc(CNC2=NCCO2)c1`, the EC50 (alpha2B receptor) was 39 nM, the “(rel. efficacy) Alpha 2B” value (alpha2B receptor; RSAT) was 0.82 and the EC50 (alpha2C receptor) was 17 nM. The “(rel. efficacy) Alpha 2C” value (alpha2C receptor; RSAT) was 0.59.
For `Brc1ccccc1CNC1=NCCS1`, the EC50 (alpha2A receptor) was 2780 nM, the “(rel. efficacy) Alpha 2A” value (alpha2A receptor; RSAT) was 0.37 and the EC50 (alpha2B receptor) was 29 nM. The “(rel. efficacy) Alpha 2B” value (alpha2B receptor; RSAT) was 0.84, the EC50 (alpha2C receptor) was 190 nM and the “(rel. efficacy) Alpha 2C” value (alpha2C receptor; RSAT) was 0.77.
`Clc1cccc(CNC2=NCCS2)c1Br` was tested, and the EC50 (alpha2B receptor) was 40 nM, the “(rel. efficacy) Alpha 2B” value (alpha2B receptor; RSAT) was 0.85 and the EC50 (alpha2C receptor; [2]) was 303 nM. For the same compound, the “(rel. efficacy) Alpha 2C” value (alpha2C receptor; RSAT) was 0.68.
In the case of `Clc1ccc(Br)cc1CNC1=NCCO1`, the EC50 (alpha2B receptor) is reported as 20 nM, the “(rel. efficacy) Alpha 2B” value (alpha2B receptor; RSAT) is reported as 0.98 and the EC50 (alpha2C receptor) is reported as 81 nM. For the same compound, the “(rel. efficacy) Alpha 2C” value (alpha2C receptor; RSAT) was 0.71.
For `Fc1c(I)cccc1CNC1=NCCS1`, the EC50 (alpha2A receptor; [1]) was 589 nM, the “(rel. efficacy) Alpha 2A” value (alpha2A receptor; RSAT) was 1.07 and the EC50 (alpha2B receptor) was 6 nM. The “(rel. efficacy) Alpha 2B” value (alpha2B receptor; RSAT) was 1.0, the EC50 (alpha2C receptor) was 88 nM and the “(rel. efficacy) Alpha 2C” value (alpha2C receptor; RSAT) was 1.05.
With `Cc1c(Cl)cccc1CNC1=NCCS1` the EC50 (alpha2B receptor) was 40 nM, the “(rel. efficacy) Alpha 2B” value (alpha2B receptor; RSAT) was 0.99 and the EC50 (alpha2C receptor) was 401 nM. The “(rel. efficacy) Alpha 2C” value (alpha2C receptor; RSAT) was 0.72.
With `Cc1cccc(CNC2=NCCS2)c1Cl` the EC50 (alpha2A receptor; [1]) was 281 nM, the “(rel. efficacy) Alpha 2A” value (alpha2A receptor; RSAT) was 0.4 and the EC50 (alpha2B receptor) was 11 nM. For the same compound, the “(rel. efficacy) Alpha 2B” value (alpha2B receptor; RSAT) was 1.27, the EC50 (alpha2C receptor) was 32 nM and the “(rel. efficacy) Alpha 2C” value (alpha2C receptor; RSAT) was 1.03.

Reference: patent US8329918B2, “Selective alpha 2B/2C agonists” (priority 2009, dated 2012)
